Reference: US6388108B1, “Aminosterol compounds and uses thereof” (Genaera Corporation, priority 1998, dated 2002)
Values after ≈ are worked out from the molar mass of the structure shown.

Columns and labels:
Assay in all cases: Minimum inhibitory concentration (MIC), microtiter broth incubation
Type in all cases: cell-based
Conditions in all cases: 0.5x trypticase soy broth, 37° C., 18-24 hours; lowest concentration with no growth
E. coli = tested on: E. coli
Description: (§1) Aminosterol compounds (1)-(11) were assayed in vitro against several microbial organisms to evaluate their spectrum of activity. Minimum inhibitory concentrations (MIC) for the bacteria and yeast were determined by incubating 0.9-1.1e5 colony-forming units per milliliter of log-phase microbes in 0.5×trypticase soy broth with increasing concentrations of sample in ninety-six well microtiter plates (commercially available from Corning of Corning, N.Y.) at 37° C. for eighteen to twenty-four hours. The minimum inhibitory concentration (MIC) is the lowest concentration of sample at which no growth was observed. Control incubation in the absence of bacteria served as a baseline value. Initial sample concentrations were two milligrams per milliliter in 250 mM sodium acetate, pH 6.6.

P. aeruginosa = tested on: P. aeruginosa
Description: as §1

S. aureus = tested on: S. aureus
Description: as §1

C. albicans = tested on: C. albicans
Description: as §1

CC(CSCC(N)C(=O)O)C(=O)CCC(C)C1CCC2C3C(O)CC4CC(NCCCNCCCCN)CCC4(C)C3CCC12C (stereo not drawn) [Aminosterol (1)]
MIC E. coli (E. coli): 256 µg/mL (≈ 385 µM) | MIC P. aeruginosa (P. aeruginosa): 256 µg/mL (≈ 385 µM) | MIC S. aureus (S. aureus): 8 to 16 µg/mL | MIC C. albicans (C. albicans): 128 µg/mL (≈ 192 µM)

CC(CCC(=O)C(C)(C)O)C1CCC2C3C(O)CC4CC(NCCCNCCCCN)CCC4(C)C3CCC12C (stereo not drawn) [Aminosterol (2)]
MIC E. coli (E. coli): 125 µg/mL (≈ 222 µM) | MIC P. aeruginosa (P. aeruginosa): >250 µg/mL | MIC S. aureus (S. aureus): 31 µg/mL (≈ 55.2 µM)

CC(CO)C(CCC(C)C1CCC2C3C(O)CC4CC(NCCCNCCCCN)CCC4(C)C3CCC12C)OS(=O)(=O)O (stereo not drawn) [Aminosterol (3)]
MIC E. coli (E. coli): >250 µg/mL | MIC P. aeruginosa (P. aeruginosa): >250 µg/mL | MIC S. aureus (S. aureus): 250 µg/mL (≈ 388 µM)

CC(COS(=O)(=O)O)C(O)CCC(C)C1CCC2C3C(O)CC4CC(NCCCNCCCCN)CCC4(C)C3CCC12C (stereo not drawn) [Aminosterol (4)]
MIC E. coli (E. coli): 128 µg/mL (≈ 199 µM) | MIC P. aeruginosa (P. aeruginosa): 32 µg/mL (≈ 49.7 µM) | MIC S. aureus (S. aureus): 4 to 8 µg/mL | MIC C. albicans (C. albicans): 16 µg/mL (≈ 24.8 µM)

CC(CO)C(O)CCC(C)C1CCC2C3C(O)CC4CC(NCCCNCCCCN)CCC4(C)C3CCC12C (stereo not drawn) [Aminosterol (5)]
MIC E. coli (E. coli): 125 µg/mL (≈ 222 µM) | MIC P. aeruginosa (P. aeruginosa): 250 µg/mL (≈ 443 µM) | MIC S. aureus (S. aureus): 63 µg/mL (≈ 112 µM)

CC(CO)C(=O)CCC(C)C1CCC2C3C(O)CC4CC(NCCCNCCCCN)CCC4(C)C3CCC12C (stereo not drawn) [Aminosterol (6)]
MIC E. coli (E. coli): 63 µg/mL (≈ 112 µM) | MIC P. aeruginosa (P. aeruginosa): >250 µg/mL | MIC S. aureus (S. aureus): 8 µg/mL (≈ 14.2 µM)

CC(C)C(CCC(C)C1CCC2C3C(O)CC4CC(NCCCNCCCCN)CCC4(C)C3CC(O)C12C)OS(=O)(=O)O (stereo not drawn) [Aminosterol (7)]
MIC E. coli (E. coli): 16 µg/mL (≈ 24.8 µM) | MIC P. aeruginosa (P. aeruginosa): 16 µg/mL (≈ 24.8 µM) | MIC S. aureus (S. aureus): 8 to 16 µg/mL | MIC C. albicans (C. albicans): 32 µg/mL (≈ 49.7 µM)

CC(CCCC(C)(C)O)C1CCC2C3C(O)CC4CC(NCCCNCCCCN)CCC4(C)C3CCC12C (stereo not drawn) [Aminosterol (8)]
MIC E. coli (E. coli): 8 µg/mL (≈ 14.6 µM) | MIC P. aeruginosa (P. aeruginosa): 32 µg/mL (≈ 58.4 µM) | MIC S. aureus (S. aureus): 1 µg/mL (≈ 1.83 µM)

CC(COS(=O)(=O)O)C(O)CCC(C)C1CCC2C3C(O)CC4CC(NCCCNCCCCNCCCN)CCC4(C)C3CCC12C (stereo not drawn) [Aminosterol (9)]
MIC E. coli (E. coli): 31 µg/mL (≈ 44.2 µM) | MIC P. aeruginosa (P. aeruginosa): 31 µg/mL (≈ 44.2 µM) | MIC S. aureus (S. aureus): 31 µg/mL (≈ 44.2 µM)

CC(C)C(CCC(C)C1CCC2C3C(=O)CC4CC(NCCCNCCCCN)CCC4(C)C3CCC12C)OS(=O)(=O)O (stereo not drawn) [Aminosterol (10)]
MIC E. coli (E. coli): 8 µg/mL (≈ 12.8 µM) | MIC P. aeruginosa (P. aeruginosa): 31 µg/mL (≈ 49.5 µM) | MIC S. aureus (S. aureus): 2 µg/mL (≈ 3.2 µM)

CC(C)C(CCC(C)C1CCC2C3CCC4CC(NCCCNCCCCN)CCC4(C)C3CCC12C)OS(=O)(=O)O (stereo not drawn) [Aminosterol (11)]
MIC E. coli (E. coli): 125 µg/mL (≈ 204 µM) | MIC P. aeruginosa (P. aeruginosa): 250 µg/mL (≈ 409 µM) | MIC S. aureus (S. aureus): 16 µg/mL (≈ 26.1 µM)
